Test results from patent US6706663B2, “Herbicidal 3-heterocyclic substituted benzisothiazole and benzisoxazole compounds” (Wyeth, priority 2000, dated 2004).

Columns and labels:
[1] = tested on: ECHORC (Echinochloa oryzoides); assay: Flooded paddy, preemergence weed control; assay type: in vivo, Echinochloa oryzoides (Ard.) Fritsch.; details: rated 3-4 weeks after treatment, 0-9 rating scale
Procedure, shortened: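 Under paddy conditions, seeds or vegetative propagules go into the top 0.5 cm of silt loam; the soil is then flooded to 1.5–3 cm and kept so. Treated pots stay in a greenhouse; response is rated 0-9 visually versus control.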

[2] = tested on: IPOHE (Ipomoea hederacea); assay: Preemergence herbicidal evaluation; assay type: in vivo, (L.) Jacq.; details: preemergence, rated 4-5 weeks after treatment
ORYSAT (Rice, Tebonnet) = assay: Flooded paddy, post-transplant rice tolerance; assay type: in vivo, Oryza sativa, (L.) Tebonnet; details: flooded paddy, post-transplant rice, rated 3-4 weeks after treatment, 0-9 rating scale
Procedure, shortened: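 Seedlings aged ten days are transplanted in pairs into undrained pots of silt loam, which are then flooded to a depth of 1.5 to 3 cm. After herbicide application the pots are kept in a greenhouse with the flood maintained. Plants are rated 0-9 by visual comparison with controls.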

[3] = tested on: GLXMAW (Soybean, Williams); assay: Postemergence herbicidal evaluation; assay type: in vivo, Glycine max, (L.) Merr. cv Williams
Procedure, shortened: (§1)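 Seedlings grown about two weeks in flats, sprayed, then kept under standard greenhouse care. Rated visually 4–5 weeks after treatment on a 0–9 scale (stand, vigour, malformation, size, chlorosis, overall appearance) relative to untreated control; repeat tests averaged.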

[4] = tested on: GLXMAW (Soybean, Williams); assay: Preemergence herbicidal evaluation; assay type: in vivo, Glycine max, (L.) Merr. cv Williams; details: preemergence, rated 4-5 weeks after treatment
ZEAMX (Corn, Field) [5] = assay: Postemergence herbicidal evaluation; assay type: in vivo, Zea mays, L.
Procedure, shortened: as §1

[6] = tested on: TRZAWR (Wheat, Winter, cv Riband); assay: Preemergence herbicidal evaluation; assay type: in vivo, Triticum aestivum; details: preemergence, rated 4-5 weeks after treatment
Procedure, shortened: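 Applied before emergence as an aqueous acetone spray over seeded soil. Read-out: 0–9 visual rating covering plant stand, vigor, size, chlorosis, malformation and overall appearance compared with control, taken 4–5 weeks after spraying.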

[7] = tested on: ABUTH (Abutilon theophrasti); assay: Preemergence herbicidal evaluation; assay type: in vivo, Medic.; details: preemergence, rated 4-5 weeks after treatment
ZEAMX (Corn, Field) [8] = assay: Preemergence herbicidal evaluation; assay type: in vivo, Zea mays, L.; details: preemergence, rated 4-5 weeks after treatment
[9] = tested on: ECHCG (Echinochloa crus-galli); assay: Postemergence herbicidal evaluation; assay type: in vivo, (L.) Beau
Procedure, shortened: as §1

| Structure (SMILES) | herbicidal rating, ECHORC ([1]; rate 0.0080 kg/ha) | herbicidal rating, ECHORC ([1]; rate 0.0320 kg/ha) | herbicidal rating, ECHORC ([1]; rate 0.1250 kg/ha) | IPOHE preemergence herbicidal rating ([2]; Rate 0.0620 kg/ha) | IPOHE preemergence herbicidal rating ([2]; Rate 0.1250 kg/ha) | IPOHE preemergence herbicidal rating ([2]; Rate 0.2500 kg/ha) | herbicidal rating, ORYSAT (rice tolerance) (ORYSAT (Rice, Tebonnet); rate 0.0080 kg/ha) | herbicidal rating, ORYSAT (rice tolerance) (ORYSAT (Rice, Tebonnet); rate 0.0320 kg/ha) | herbicidal rating, ORYSAT (rice tolerance) (ORYSAT (Rice, Tebonnet); rate 0.1250 kg/ha) | Postemergence herbicidal rating, GLXMAW ([3]; rate 0.0320 kg/ha) | Postemergence herbicidal rating, GLXMAW ([3]; rate 0.0620 kg/ha) | GLXMAW preemergence herbicidal rating ([4]; Rate 0.0620 kg/ha) | GLXMAW preemergence herbicidal rating ([4]; Rate 0.1250 kg/ha) | GLXMAW preemergence herbicidal rating ([4]; Rate 0.2500 kg/ha) | Postemergence herbicidal rating, ZEAMX (ZEAMX (Corn, Field) [5]; rate 0.0320 kg/ha) | Postemergence herbicidal rating, ZEAMX (ZEAMX (Corn, Field) [5]; rate 0.0620 kg/ha) | TRZAWR preemergence herbicidal rating ([6]; Rate 0.0620 kg/ha) | TRZAWR preemergence herbicidal rating ([6]; Rate 0.1250 kg/ha) | TRZAWR preemergence herbicidal rating ([6]; Rate 0.2500 kg/ha) | ABUTH preemergence herbicidal rating ([7]; Rate 0.0620 kg/ha) | other results |
| --- | --- | --- | --- | --- | --- | --- | --- | --- | --- | --- | --- | --- | --- | --- | --- | --- | --- | --- | --- | --- | --- |
| CC(=O)N1CCSC1c1nsc2ccc(-n3c(=O)cc(C(F)(F)F)n(C)c3=O)cc12 (stereo not drawn) [Compound 29, 3-acetyl-2-[5-[3,6-dihydro-3-methyl-2,6-dioxo-4-(trifluoromethyl)-1(2H)-pyrimidinyl]-1,2-benzisothiazol-3-yl]thiazolidine] | 0.0 | 7.0 | 9.0 | 5.0 | 7.5 | 9.0 | 0.0 | 3.5 | 7.0 | 7.5 | 8.0 | 6.5 | 7.0 | 9.0 | 6.0 | 6.0 | 2.0 | 8.0 | 8.0 | 8.0 | ABUTH preemergence herbicidal rating ([7]; Rate 0.1250 kg/ha): 9.0; ABUTH preemergence herbicidal rating ([7]; Rate 0.2500 kg/ha): 9.0; ZEAMX preemergence herbicidal rating (ZEAMX (Corn, Field) [8]; Rate 0.0620 kg/ha): 5.5; ZEAMX preemergence herbicidal rating (ZEAMX (Corn, Field) [8]; Rate 0.1250 kg/ha): 7.0; ZEAMX preemergence herbicidal rating (ZEAMX (Corn, Field) [8]; Rate 0.2500 kg/ha): 7.0; Postemergence herbicidal rating, ECHCG ([9]; rate 0.0320 kg/ha): 0.0; Postemergence herbicidal rating, ECHCG ([9]; rate 0.0620 kg/ha): 2.0 |
| Cn1c(C(F)(F)F)cc(=O)n(-c2ccc3snc(C4SCCN4C(=O)c4ccccc4)c3c2)c1=O (stereo not drawn) [Compound 30, 3-benzoyl-2-[5-[3,6-dihydro-3-methyl-2,6-dioxo-4-(trifluoromethyl)-1(2H)-pyrimidinyl]-1,2-benzisothiazol-3-yl]thiazolidine] | 3.0 | 4.0 | 9.0 | 1.5 | 1.5 | 6.5 | 0.0 | 3.0 | 5.0 | 6.0 | 6.5 | 1.0 | 0.0 | 5.0 | 4.5 | 6.0 | 0.0 | 2.0 | 6.0 | 9.0 | ABUTH preemergence herbicidal rating ([7]; Rate 0.1250 kg/ha): 9.0; ABUTH preemergence herbicidal rating ([7]; Rate 0.2500 kg/ha): 9.0; ZEAMX preemergence herbicidal rating (ZEAMX (Corn, Field) [8]; Rate 0.0620 kg/ha): 0.5; ZEAMX preemergence herbicidal rating (ZEAMX (Corn, Field) [8]; Rate 0.1250 kg/ha): 3.5; ZEAMX preemergence herbicidal rating (ZEAMX (Corn, Field) [8]; Rate 0.2500 kg/ha): 5.5; Postemergence herbicidal rating, ECHCG ([9]; rate 0.0320 kg/ha): 0.0; Postemergence herbicidal rating, ECHCG ([9]; rate 0.0620 kg/ha): 2.0 |
